Results from US20170367390A1, “USE OF ELLAGIC ACID DIHYDRATE IN FOOD PRODUCTS AND NUTRACEUTICALS” (HALO LIFE SCIENCE, LLC, priority 2014, published 2017).
Entries after “also recorded” stand apart in the source; their conditions may differ.

Key:
[1] = Activity level in mice; assay type: in vivo, mouse; details: mice, Applicant's observation
Text: Activity levels in mice treated with ellagic acid dihydrate may be quantified by several procedures, such as those outlined in Turri, M. et al.; QTL Analysis Identifies Multiple Behavioral Dimensions in Ethological Tests of Anxiety in Laboratory Mice; Current Biology; 2001; 11(10): 725-734. Two examples of procedures taught therein follows. Gross Locomotor Activity in Home Cage: Mice are caged singly several days prior to home cage activity monitoring and subsequent testing. Activity in home cages are measured during the first 2 hours of the dark cycle on two consecutive days. Two infrared photo emitter-detector pairs, located outside the clear plastic home cage that divide the cage into three equal areas, are used to record gross locomotor activity on the floor of the home cage as the animal breaks the photo beams. The beam-break activity score consists of the square root of the number of beam breaks for each detector summed across the two test days. Magnitude of Activity in Home Cage: Mice are caged singly several days prior to home cage activity monitoring and subsequent testing. Activity in home cages are measured during the first 2 hours of the dark cycle on two consecutive days. An infrared motion detector located above the top of the home cage is employed to converts all motion sensed within the home cage into arbitrary units, based on the magnitude of activity detected.

[2] = Weight loss and blood glucose in female SWV mice with STZ induced diabetes, 30 days gavage; assay type: in vivo, mouse; details: thirty days
Method: Weight loss and blood glucose in diabetes induced mice treated with ellagic acid was determined and weight loss and blood glucose in mice treated with ellagic acid dihydrate may be determined by the following procedures. Induction of Diabetes: Diabetes is induced in mice by intraperitoneal injection with Streptozotocin (STZ 40 mg/kg) daily for five days. The mice are considered hyperglycemic when the glucose level of each dam is above 200 mg/dL. The mice are fasted for 4 hours before STZ injection and glucose measurement. Treatment: The mice are treated daily for thirty days with ellagic acid or control in the form of a supplemental pill homogenized and suspended in 25% water solution of Cremophor EL. The mice are treated for one month via gavage using the human equivalent dose of 122.4 mg pill/kg of subject (40.6 mg ellagic acid/kg of the subject), the human equivalent does of 40.6 mg ellagic acid/kg of the subject using 98% pure ellagic acid, or control vehicle (25% water solution of Cremophor EL). The human equivalent dose is calculated as described in Example 8. Treatments would start two weeks after the last STZ injection in which hyperglycemia is confirmed in the diabetic mice. The mice would be weighed daily and glucose levels would be measured in fasted animals every five days.

[3] = tested on: MEF cells; experiment: Glucose uptake, 2-NBDG labeling, high-content imaging (Operetta), MEFs; assay type: cell-based, mouse
Method: (§1) Increased glucose uptake was indicated as increasing signal of 2-NBDG ([…]) in cells. Glucose uptake assays were carried out in a final incubation volume of 50 μl consisting of, 2-NBDG), (100 μM) in 1× Phosphate Buffered Saline w/Ca+, Mg+ (PBS++). The same buffer was used for washing cells. Insulin was used as a positive control. All testing compounds were prepared in 10% DMSO and diluted 1:100 for a final concentration of 0.1% DMSO (vehicle). Cells were culture to 70-90% confluence and then washed twice with PBS++. Cells were incubated for 30 minutes at 37° C. in PBS++. Nuclear stain, HCS CellMask stain (blue, Invitrogen), and/or testing compounds (ellagic acid dihydrate, insulin, or vehicle) were added. Cells were incubated for 30 min at 37° C. Cells were washed twice with PBS++ and incubated with 2-NBDG for 10 minutes. Cells were washed thrice with PBS++ and then imaged in PBS++. Alternatively, the final PBS wash was removed and cells were incubated with Accutase (Invitrogen) for 10 min at 37° C., neutralized with 10% FBS in 1×PBS, and analyzed by flow cytometry. An additional experiment was performed to measure glucose uptake in C2Cl2 cells exposed to metformin, insulin and ellagic acid dihydrate 2 (batch 2). FIG. 5C. Glucose uptake in ellagic acid dihydrate treated cell culture was measured and compared to glucose uptake under insulin or ellagic acid treatment. […] Flow cytometry results were run in triplicate with 1000 cells per batch.

[4] = tested on: p44/42 MAPK; experiment: p44/42 MAPK:Phos p44/42 MAPK ratio by immunocytochemistry, high-content imaging in C2C12; assay type: cell-based, mouse; details: serum starved C2C12, 30 minutes, 0.04 nM
Method: Stimulation of AKT pathways and MAPK pathways in ellagic acid dihydrate, metformin, and insulin treated cell cultures was performed. Insulin stimulates glucose uptake into cells by increasing GLUT4 activation, and AKT, specifically phos-AKT, signaling alters GLUT4 translocation. […] Cellular assays were performed using mouse myoblast C2C12 cells. Relative protein levels of AKT:phos AKT and p44/42 MAPK:phos p44/42 MAPK were determined.
Serum starved cells (1 hr) were treated for 30 minutes with each of the tested compounds. Ratios of phosphorylated to non-phosphorylated proteins were determined using immunocytochemistry labeling (anti-AKT, anti-Phos AKT; or anti-p44/42 MAPK, anti-Phos p44/42 MAPK) on a high-content imaging system (Operetta, Perkin Elmer) using the fluorescent signal of anti-rabbit Alexa 647. Increased phosphorylation is indicated as decrease in signal of AKT:Phos AKT ratio (log 2 scale) and p44/42 MAPK:Phos p44/42 MAPK ratio (log 2 scale) relative to vehicle treated cells.

[5] = tested on: AKT; experiment: AKT:Phos AKT ratio by immunocytochemistry, high-content imaging in C2C12; assay type: cell-based, mouse; details: serum starved C2C12, 30 minutes; 4 nM-4 μM for insulin and ellagic acid dihydrate
Method: Stimulation of AKT pathways and MAPK pathways in ellagic acid dihydrate, metformin, and insulin treated cell cultures was performed. Insulin stimulates glucose uptake into cells by increasing GLUT4 activation, and AKT, specifically phos-AKT, signaling alters GLUT4 translocation. […] Cellular assays were performed using mouse myoblast C2C12 cells. […] Serum starved cells (1 hr) were treated for 30 minutes with each of the tested compounds.

[6] = tested on: GLUT4-GFP; experiment: Localization of glucose transporter GLUT4-GFP, time-lapse confocal microscopy in C2C12; assay type: cell-based, mouse; details: C2C12, 4000 nM exposure
Method: Induction of glucose transporter, GLUT-4, in ellagic acid dihydrate treated cell cultures was studied. Cellular assays were performed using mouse myoblast C2C12 cells. The cells were infected with a fusion glucose transporter 4 green fluorescent protein (GLUT4-GFP). This protein allows the visualization of GLUT4 by imaging the GFP under fluorescent time-lapse microscopy. Frames were compiled to produce time-lapse images of cellular changes with no treatment or treatment with insulin. The localization of glucose transporter (GLUT4-GFP) was performed in final incubation volume of 505 μL, consisting of 500 μl of Hank's Buffer (Invitrogen) and 5 μl of tested compounds. Insulin was used as positive controls and vehicle (0.1% DMSO) as the negative control. All test compounds were prepared in 10% DMSO and diluted 1:100 for a final concentration of 0.1% DMSO (vehicle). The cells were rinsed in Hank's Buffer thrice and then incubated in Hank's Buffer at 37° C. for one hour. The test compounds were added (ellagic acid dihydrate, insulin, or vehicle) and the cells were imaged using laser-confocal microscopy (Leica TCS SP5 X) with FITC fluorescent filters to determine changes in GLUT4-GFP localization. Time-lapse images (TIF) were collected and post-processed using Image-J (NIH) for video construction.

[7] = tested on: mouse myoblast C2C12 cells; experiment: Glucose uptake, 2-NBDG labeling, flow cytometry, C2C12; assay type: cell-based
Method: Cellular assays were performed using mouse myoblast C2C12 cells and MEF cells. […] Increased glucose uptake was indicated as increasing signal of 2-NBDG ([…]) in cells. Glucose uptake assays were carried out in a final incubation volume of 50 μl consisting of, 2-NBDG), (100 μM) in 1× Phosphate Buffered Saline w/Ca+, Mg+ (PBS++). The same buffer was used for washing cells. Insulin was used as a positive control. All testing compounds were prepared in 10% DMSO and diluted 1:100 for a final concentration of 0.1% DMSO (vehicle). Cells were culture to 70-90% confluence and then washed twice with PBS++. Cells were incubated for 30 minutes at 37° C. in PBS++. Nuclear stain, HCS CellMask stain (blue, Invitrogen), and/or testing compounds (ellagic acid dihydrate, insulin, or vehicle) were added. Cells were incubated for 30 min at 37° C. Cells were washed twice with PBS++ and incubated with 2-NBDG for 10 minutes. Cells were washed thrice with PBS++ and then imaged in PBS++. Alternatively, the final PBS wash was removed and cells were incubated with Accutase (Invitrogen) for 10 min at 37° C., neutralized with 10% FBS in 1×PBS, and analyzed by flow cytometry. An additional experiment was performed to measure glucose uptake in C2Cl2 cells exposed to metformin, insulin and ellagic acid dihydrate 2 (batch 2). FIG. 5C.

[8] = tested on: MEF cells; experiment: Glucose uptake, 2-NBDG labeling, flow cytometry, MEFs; assay type: cell-based, mouse; details: flow cytometry
Method: as §1, with “Cellular assays were performed using mouse myoblast C2C12 cells and MEF cells. […] Increased” for “Increased”

Molecule	activity levels [1]	mean glucose level values, treated versus control mice ([2]; STZ diabetic mice)	average loss of body weight ([2]; female SWV mice with STZ induced diabetes, human equivalent dose (40.6 mg ellagic acid/kg), gavage daily, control lost 2.2%)	dose effect for increasing glucose uptake [3]	p44/42 MAPK:Phos p44/42 MAPK ratio relative to vehicle [4]	AKT:Phos AKT ratio (log 2 scale) relative to vehicle treated cells [5]	p44/42 MAPK:Phos p44/42 MAPK ratio relative to vehicle ([4]; 400 nM)	GLUT4-GFP localization [6]	ruffling of filopodia at the surface of the cell [6]	dose effect for increasing glucose uptake ([7]; C2C12, flow cytometry, 2-NBDG)	glucose uptake (2-NBDG signal) relative to vehicle ([7]; C2C12, flow cytometry, vehicle 0.1% DMSO)	increase in glucose uptake in myoblasts relative to fibroblasts ([7]; C2C12 myoblasts versus MEF fibroblasts)	increased glucose uptake (percent change relative to vehicle) ([8]; 400 nM exposure, fibroblasts (MEFs))	dose effect for increasing glucose uptake ([8]; MEFs, 2-NBDG)	glucose uptake (2-NBDG signal) relative to vehicle ([8]; MEFs, vehicle 0.1% DMSO)	glucose uptake (2-NBDG signal) ([3]; versus vehicle (Neg, 0.1% DMSO))
O=c1oc2c(O)c(O)cc3c(=O)oc4c(O)c(O)cc1c4c23 [ellagic acid]	increased activity levels	no significant differences between the mean glucose level values	11.7%	little to no glucose uptake per unit dose; also recorded: no such dose effect was seen	–	–	–	–	–	–	–	–	–	–	–	–
CN(C)C(=N)N=C(N)N [metformin]	–	–	–	–	increased the ratio of p44/42 MAPK	increase in AKT relative to phosphorylation of AKT	–	–	–	–	–	–	–	–	–	–
insulin [reference compound]	–	–	–	dose effect for increasing glucose uptake	–	−0.5	increase in p44/42 MAPK	decrease in GLUT4-GFP around the cell nucleus and a parallel increase of movement at the membrane	rapid production of numerous projections (ruffling of filopodia) at the surface of the cell	dose effect for increasing glucose uptake	significant increase in glucose uptake relative to the vehicle	~4 ×	32%	dose effect for increasing glucose uptake	significant increase in glucose uptake relative to the vehicle	showed an increase in glucose uptake
